# Patent publication US20230085307A1, “PYRIDAZINONE COMPOUND AND HERBICIDE” (NISSAN CHEMICAL CORPORATION, priority 2019, published 2023)
# Assays:
# redroot pigweed [1] = test: Test Example 5: herbicidal effect by foliage application, plastic box (Table 20, symbol N); format: in vivo, redroot pigweed (Amaranthus retroflexus); conditions: 320 g/ha, foliage application after 14-day growth, evaluated three weeks after application
# How it was run: (§1)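 Post-emergence foliar test in sterilized diluvial soil. Compound applied as water-diluted emulsion at a predetermined rate to 14-day-old plants; evaluation at three weeks.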
# green foxtail [2] = test: Test Example 4: herbicidal effect by soil treatment (Table 19, symbol G); format: in vivo, green foxtail (Setaria viridis); conditions: amount of applied herbicide 320 g/ha
# How it was run: (§2)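 Emulsion of test compound, water-diluted to predetermined amount, sprayed on soil after sowing (seed depth ~1.5 cm, sterilized diluvial soil). Greenhouse, 25–30° C. Effect graded at three weeks post-spray.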
# chickweed [3] = test: Test Example 4: herbicidal effect by soil treatment (Table 19, symbol P); format: in vivo, common chickweed (Stellaria media); conditions: amount of applied herbicide 320 g/ha
# How it was run: as §2
# Italian ryegrass [4] = test: Test Example 4: herbicidal effect by soil treatment (Table 19, symbol K); format: in vivo, Italian ryegrass (Lolium multiflorum); conditions: amount of applied herbicide 320 g/ha
# How it was run: as §2
# velvetleaf [5] = test: Test Example 4: herbicidal effect by soil treatment (Table 19, symbol M); format: in vivo, velvetleaf (Abutilon theophrasti); conditions: amount of applied herbicide 320 g/ha
# How it was run: as §2
# lambsquarters [6] = test: Test Example 5: herbicidal effect by foliage application, plastic box (Table 20, symbol O); format: in vivo, lambsquarters (Chenopodium album); conditions: 320 g/ha, foliage application after 14-day growth, evaluated three weeks after application
# How it was run: as §1
# barnyard grass [7] = test: Test Example 3: herbicidal effect by foliage application, Wagner pot (Table 18, symbol H); format: in vivo, barnyard grass (Echinochloa crus-galli); conditions: 320 g/ha
# How it was run: (§3)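 Plants were sown in alluvial soil held under 0.1–0.5 cm standing water and grown 14 days in a greenhouse at 25–30 °C. An emulsifiable formulation, water-diluted to the set dose, was then sprayed onto the foliage, and effects were scored three weeks later using previously defined criteria.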
# blackgrass [8] = test: Test Example 5: herbicidal effect by foliage application, plastic box (Table 20, symbol J); format: in vivo, blackgrass (Alopecurus myosuroides); conditions: 320 g/ha, foliage application after 14-day growth, evaluated three weeks after application
# How it was run: as §1
# Italian ryegrass [9] = test: Test Example 5: herbicidal effect by foliage application, plastic box (Table 20, symbol K); format: in vivo, Italian ryegrass (Lolium multiflorum); conditions: 320 g/ha, foliage application after 14-day growth, evaluated three weeks after application
# How it was run: as §1
# chickweed [10] = test: Test Example 5: herbicidal effect by foliage application, plastic box (Table 20, symbol P); format: in vivo, common chickweed (Stellaria media); conditions: 320 g/ha, foliage application after 14-day growth, evaluated three weeks after application
# How it was run: as §1
# rice flat sedge = test: Test Example 3: herbicidal effect by foliage application, Wagner pot (Table 18, symbol E); format: in vivo, rice flat sedge (Cyperus iria); conditions: 320 g/ha
# How it was run: as §3
# persian speedwell [11] = test: Test Example 4: herbicidal effect by soil treatment (Table 19, symbol R); format: in vivo, Persian speedwell (Veronica persica); conditions: amount of applied herbicide 320 g/ha
# How it was run: as §2
# green foxtail [12] = test: Test Example 5: herbicidal effect by foliage application, plastic box (Table 20, symbol G); format: in vivo, green foxtail (Setaria viridis); conditions: 320 g/ha, foliage application after 14-day growth, evaluated three weeks after application
# How it was run: as §1
# wild oat [13] = test: Test Example 4: herbicidal effect by soil treatment (Table 19, symbol I); format: in vivo, wild oat (Avena fatua); conditions: amount of applied herbicide 320 g/ha
# How it was run: as §2
# blackgrass [14] = test: Test Example 4: herbicidal effect by soil treatment (Table 19, symbol J); format: in vivo, blackgrass (Alopecurus myosuroides); conditions: amount of applied herbicide 320 g/ha
# How it was run: as §2
# persian speedwell [15] = test: Test Example 5: herbicidal effect by foliage application, plastic box (Table 20, symbol R); format: in vivo, Persian speedwell (Veronica persica); conditions: 320 g/ha, foliage application after 14-day growth, evaluated three weeks after application
# How it was run: as §1
# Chinese sprangletop = test: Test Example 3: herbicidal effect by foliage application, Wagner pot (Table 18, symbol D); format: in vivo, chinese sprangletop (Leptochloa chinensis); conditions: 320 g/ha
# How it was run: as §3
# barnyard grass [16] = test: Test Example 5: herbicidal effect by foliage application, plastic box (Table 20, symbol H); format: in vivo, barnyard grass (Echinochloa crus-galli); conditions: 320 g/ha, foliage application after 14-day growth, evaluated three weeks after application
# How it was run: as §1
# wild oat [17] = test: Test Example 5: herbicidal effect by foliage application, plastic box (Table 20, symbol I); format: in vivo, wild oat (Avena fatua); conditions: 320 g/ha, foliage application after 14-day growth, evaluated three weeks after application
# How it was run: as §1
# windgrass [18] = test: Test Example 4: herbicidal effect by soil treatment (Table 19, symbol L); format: in vivo, windgrass (Apera spica-venti); conditions: amount of applied herbicide 320 g/ha
# How it was run: as §2
# southern crabgrass [19] = test: Test Example 5: herbicidal effect by foliage application, plastic box (Table 20, symbol F); format: in vivo, southern crabgrass (Digitaria ciliaris); conditions: 320 g/ha, foliage application after 14-day growth, evaluated three weeks after application
# How it was run: as §1
# barnyard grass [20] = test: Test Example 4: herbicidal effect by soil treatment (Table 19, symbol H); format: in vivo, barnyard grass (Echinochloa crus-galli); conditions: amount of applied herbicide 320 g/ha
# How it was run: as §2
# lambsquarters [21] = test: Test Example 4: herbicidal effect by soil treatment (Table 19, symbol O); format: in vivo, lambsquarters (Chenopodium album); conditions: amount of applied herbicide 320 g/ha
# How it was run: as §2
# velvetleaf [22] = test: Test Example 5: herbicidal effect by foliage application, plastic box (Table 20, symbol M); format: in vivo, velvetleaf (Abutilon theophrasti); conditions: 320 g/ha, foliage application after 14-day growth, evaluated three weeks after application
# How it was run: as §1
# southern crabgrass [23] = test: Test Example 4: herbicidal effect by soil treatment (Table 19, symbol F); format: in vivo, southern crabgrass (Digitaria ciliaris); conditions: amount of applied herbicide 320 g/ha
# How it was run: as §2
# windgrass [24] = test: Test Example 5: herbicidal effect by foliage application, plastic box (Table 20, symbol L); format: in vivo, windgrass (Apera spica-venti); conditions: 320 g/ha, foliage application after 14-day growth, evaluated three weeks after application
# How it was run: as §1
# redroot pigweed [25] = test: Test Example 4: herbicidal effect by soil treatment (Table 19, symbol N); format: in vivo, redroot pigweed (Amaranthus retroflexus); conditions: amount of applied herbicide 320 g/ha
# How it was run: as §2
Compound,herbicidal effect on N: redroot pigweed (evaluation grade 0-5) (redroot pigweed [1]),"Herbicidal effect by soil treatment, G: green foxtail (green foxtail [2])","Herbicidal effect by soil treatment, P: chickweed (chickweed [3])","Herbicidal effect by soil treatment, K: Italian ryegrass (Italian ryegrass [4])","Herbicidal effect by soil treatment, M: velvetleaf (velvetleaf [5])",herbicidal effect on O: lambsquarters (evaluation grade 0-5) (lambsquarters [6]),herbicidal effect on barnyard grass (H) (barnyard grass [7]),herbicidal effect on J: blackgrass (evaluation grade 0-5) (blackgrass [8]),herbicidal effect on K: Italian ryegrass (evaluation grade 0-5) (Italian ryegrass [9]),herbicidal effect on P: chickweed (evaluation grade 0-5) (chickweed [10]),herbicidal effect on rice flat sedge (E) (rice flat sedge),"Herbicidal effect by soil treatment, R: persian speedwell (persian speedwell [11])",herbicidal effect on G: green foxtail (evaluation grade 0-5) (green foxtail [12]),"Herbicidal effect by soil treatment, I: wild oat (wild oat [13])","Herbicidal effect by soil treatment, J: blackgrass (blackgrass [14])",herbicidal effect on R: persian speedwell (evaluation grade 0-5) (persian speedwell [15]),herbicidal effect on Chinese sprangletop (D) (Chinese sprangletop),herbicidal effect on H: barnyard grass (evaluation grade 0-5) (barnyard grass [16]),herbicidal effect on I: wild oat (evaluation grade 0-5) (wild oat [17]),"Herbicidal effect by soil treatment, L: windgrass (windgrass [18])",also measured
COc1ccccc1-c1sc2cc(S(C)(=O)=O)ccc2c1-c1c(O)c(C)nn(C)c1=O [3-165],4 (Herbicidal rate of 70% or more and less than 90%),3 (Herbicidal rate of 40% or more and less than 70%),5 (Herbicidal rate of 90% or more (almost completely withered)),4 (Herbicidal rate of 70% or more and less than 90%),1 (Herbicidal rate of 5% or more and less than 20%),4 (Herbicidal rate of 70% or more and less than 90%),5 (Herbicidal rate of 90% or more (almost completely withered)),4 (Herbicidal rate of 70% or more and less than 90%),4 (Herbicidal rate of 70% or more and less than 90%),5 (Herbicidal rate of 90% or more (almost completely withered)),3 (Herbicidal rate of 40% or more and less than 70%),5 (Herbicidal rate of 90% or more (almost completely withered)),4 (Herbicidal rate of 70% or more and less than 90%),0 (Herbicidal rate of 5% or less (almost no effect)),3 (Herbicidal rate of 40% or more and less than 70%),5 (Herbicidal rate of 90% or more (almost completely withered)),4 (Herbicidal rate of 70% or more and less than 90%),5 (Herbicidal rate of 90% or more (almost completely withered)),4 (Herbicidal rate of 70% or more and less than 90%),3 (Herbicidal rate of 40% or more and less than 70%),"herbicidal effect on F: southern crabgrass (evaluation grade 0-5) (southern crabgrass [19]): 5 (Herbicidal rate of 90% or more (almost completely withered)); Herbicidal effect by soil treatment, H: barnyard grass (barnyard grass [20]): 3 (Herbicidal rate of 40% or more and less than 70%); Herbicidal effect by soil treatment, O: lambsquarters (lambsquarters [21]): 0 (Herbicidal rate of 5% or less (almost no effect)); herbicidal effect on M: velvetleaf (evaluation grade 0-5) (velvetleaf [22]): 5 (Herbicidal rate of 90% or more (almost completely withered)); Herbicidal effect by soil treatment, F: southern crabgrass (southern crabgrass [23]): 5 (Herbicidal rate of 90% or more (almost completely withered)); herbicidal effect on L: windgrass (evaluation grade 0-5) (windgrass [24]): 5 (Herbicidal rate of 90% or more (almost completely withered)); Herbicidal effect by soil treatment, N: redroot pigweed (redroot pigweed [25]): 4 (Herbicidal rate of 70% or more and less than 90%)"
CCCC(=O)Oc1c(C)nn(C)c(=O)c1-c1c(-c2ccc(F)cc2OC)sc2c(F)cccc12 [4-012],4 (Herbicidal rate of 70% or more and less than 90%),0 (Herbicidal rate of 5% or less (almost no effect)),0 (Herbicidal rate of 5% or less (almost no effect)),0 (Herbicidal rate of 5% or less (almost no effect)),1 (Herbicidal rate of 5% or more and less than 20%),2 (Herbicidal rate of 20% or more and less than 40%),5 (Herbicidal rate of 90% or more (almost completely withered)),0 (Herbicidal rate of 5% or less (almost no effect)),3 (Herbicidal rate of 40% or more and less than 70%),5 (Herbicidal rate of 90% or more (almost completely withered)),5 (Herbicidal rate of 90% or more (almost completely withered)),0 (Herbicidal rate of 5% or less (almost no effect)),5 (Herbicidal rate of 90% or more (almost completely withered)),0 (Herbicidal rate of 5% or less (almost no effect)),0 (Herbicidal rate of 5% or less (almost no effect)),4 (Herbicidal rate of 70% or more and less than 90%),3 (Herbicidal rate of 40% or more and less than 70%),3 (Herbicidal rate of 40% or more and less than 70%),0 (Herbicidal rate of 5% or less (almost no effect)),0 (Herbicidal rate of 5% or less (almost no effect)),"herbicidal effect on F: southern crabgrass (evaluation grade 0-5) (southern crabgrass [19]): 2 (Herbicidal rate of 20% or more and less than 40%); Herbicidal effect by soil treatment, H: barnyard grass (barnyard grass [20]): 0 (Herbicidal rate of 5% or less (almost no effect)); Herbicidal effect by soil treatment, O: lambsquarters (lambsquarters [21]): 1 (Herbicidal rate of 5% or more and less than 20%); herbicidal effect on M: velvetleaf (evaluation grade 0-5) (velvetleaf [22]): 3 (Herbicidal rate of 40% or more and less than 70%); Herbicidal effect by soil treatment, F: southern crabgrass (southern crabgrass [23]): 0 (Herbicidal rate of 5% or less (almost no effect)); herbicidal effect on L: windgrass (evaluation grade 0-5) (windgrass [24]): 1 (Herbicidal rate of 5% or more and less than 20%); Herbicidal effect by soil treatment, N: redroot pigweed (redroot pigweed [25]): 3 (Herbicidal rate of 40% or more and less than 70%)"
